# According to patent US20230365589A1, “NOVEL AMINE DERIVATIVES” (Sumitomo Pharma Co., Ltd., priority 2020, published 2023):
# Read-outs that look alike come from different tables or passages of the source.
# Key:
# Assay type in all cases: biochemical
# [1] = biological target: T1, DYRK2 (Homo sapiens, UniProt Q92630); assay: Inhibition test on activity of DYRK family, mobility shift assay (MSA): DYRK2
# T1 construct: purchased Carna Biosciences, Inc. 04-132
# T1 sequence (Q92630 74-601 limits assumed): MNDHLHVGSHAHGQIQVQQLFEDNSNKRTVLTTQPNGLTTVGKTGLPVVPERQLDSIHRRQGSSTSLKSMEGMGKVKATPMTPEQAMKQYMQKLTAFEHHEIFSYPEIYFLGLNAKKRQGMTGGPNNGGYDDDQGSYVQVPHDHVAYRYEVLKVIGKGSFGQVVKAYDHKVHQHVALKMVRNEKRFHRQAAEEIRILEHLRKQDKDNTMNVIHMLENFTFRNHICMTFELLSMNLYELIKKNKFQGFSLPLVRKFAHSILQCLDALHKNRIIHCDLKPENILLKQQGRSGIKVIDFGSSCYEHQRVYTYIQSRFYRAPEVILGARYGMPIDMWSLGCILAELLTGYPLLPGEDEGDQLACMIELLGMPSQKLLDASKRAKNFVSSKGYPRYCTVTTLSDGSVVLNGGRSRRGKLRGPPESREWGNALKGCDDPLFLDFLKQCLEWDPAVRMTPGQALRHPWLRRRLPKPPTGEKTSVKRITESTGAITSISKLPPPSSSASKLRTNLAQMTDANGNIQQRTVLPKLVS
# Experimental: (§1) [Inhibition Test on Activity of DYRK Family (DYRK1A, DYRK1B, DYRK2, and DYRK3)]
# (§2) The kinase activity was measured by mobility shift assay (MSA) method using QuickScout Screening Assist™ MSA (commercially available kit manufactured by Carna Biosciences, Inc.). The substrate of the kinase reaction used was an FITC-labeled DYRKtide peptide included in the kit. An assay buffer [20 mM HEPES, 0.01% Triton X-100™, 2 mM dithiothreitol, pH 7.5]was used to create a substrate mixture solution with a substrate (4 μM), MgCl2(20 mM), and ATP (DYRK1A: 100 μM; DYRK1B: 200 μM; DYRK2: 40 μM; and DYRK3: 20 μM). In addition, kinases (DYRK1A: manufactured by Carna Biosciences, Inc., Cat. No. 04-130; DYRK1B: manufactured by Carna Biosciences, Inc., Cat. No. 04-131; DYRK2; manufactured by Carna Biosciences, Inc., Cat. No. 04-132; and DYRK3; manufactured by Carna Biosciences, Inc., Cat. No. 04-133) were diluted with the assay buffer to prepare enzyme solutions (DYRK1A: 0.2 ng/μL; DYRK1B: 0.08 ng/μL; DYRK2: 0.04 ng/μL; and DYRK3: 0.25 ng/μL). The 10 mM solution of the test compound in DMSO was further diluted with DMSO to 10 levels of the concentration (0.00003 mM, 0.0001 mM, 0.0003 mM, 0.001 mM, 0.003 mM, 0.01 mM, 0.03 mM, 0.1 mM, 0.3 mM, and 1 mM), each of which was subjected to 25-fold dilution with the assay buffer to obtain a drug solution (4% DMSO solution). 5 μL of the drug solution or a control solution (4% DMSO-assay buffer), 5 μL of the substrate mixture solution, and 10 μL of the enzyme solution were mixed in the wells of a polypropylene 384-well plate and allowed to react at room temperature for 1 hour, and then the reaction was quenched by adding 60 μL of the termination buffer included in the kit. Subsequently, the quantities of the substrates (S) and the phosphorylated substrate (P) in the reaction solution were measured using LabChip EZ Reader II system (manufactured by Caliper Life Sciences) according to the protocol of the assay kit.
# (§3) The heights of the peaks of the “substrate” and the “phosphorylated substrate” were expressed as S and P, respectively, and a blank containing the assay buffer instead of the enzyme solution was also measured.
# (§4) The inhibition rate (%) of the test compound was calculated according to the following equation:
# (§5) Inhibition rate (%)=(1−(C−A)/(B−A))×100 • wherein, A, B, and C represent P/(P+S) of the blank well, P/(P+S) of the control solution well, and P/(P+S) of the compound-containing well, respectively.
# (§6) The IC50 value was calculated via a regression analysis of the inhibition rate and the test compound concentration (logarithmic value).
# (§7) The inhibiting activities of representative compounds of the present invention are shown against DYRK1A, DYRK1B, DYRK2, and DYRK3 in Tables.
# [2] = biological target: T2, DYRK3 (Homo sapiens, UniProt O43781); assay: Inhibition test on activity of DYRK family, mobility shift assay (MSA): DYRK3
# T2 construct: purchased Carna Biosciences, Inc. 04-133
# T2 sequence (O43781 1-568 isoform O43781-2): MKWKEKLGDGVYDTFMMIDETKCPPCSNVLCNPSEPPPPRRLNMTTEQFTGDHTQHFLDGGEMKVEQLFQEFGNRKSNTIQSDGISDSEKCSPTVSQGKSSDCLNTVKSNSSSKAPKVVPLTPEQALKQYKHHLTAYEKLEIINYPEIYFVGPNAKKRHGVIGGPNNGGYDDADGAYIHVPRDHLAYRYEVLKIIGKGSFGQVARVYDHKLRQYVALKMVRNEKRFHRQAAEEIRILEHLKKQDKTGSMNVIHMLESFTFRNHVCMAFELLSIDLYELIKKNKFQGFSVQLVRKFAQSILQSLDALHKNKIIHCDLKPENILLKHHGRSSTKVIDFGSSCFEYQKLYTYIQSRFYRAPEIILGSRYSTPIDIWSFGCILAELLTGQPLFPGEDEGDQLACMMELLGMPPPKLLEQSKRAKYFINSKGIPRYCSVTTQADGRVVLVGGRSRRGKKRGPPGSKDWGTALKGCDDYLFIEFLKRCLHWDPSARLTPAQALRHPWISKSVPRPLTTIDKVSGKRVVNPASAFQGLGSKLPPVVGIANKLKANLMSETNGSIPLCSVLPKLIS
# Experimental: as §1, §2, §3, §4, §5, §6, §7
# [3] = biological target: T3, DYRK1A (Homo sapiens, UniProt Q13627); assay: Inhibition test on activity of DYRK family, mobility shift assay (MSA): DYRK1A
# T3 construct: purchased Carna Biosciences, Inc. 04-130
# Experimental: as §1, §2, §3, §4, §5, §6
# [4] = MSA, FITC-labeled DYRKtide peptide, ATP 40 μM, read-out: Inhibitory activity DYRK 2 (IC50 class)
# [5] = MSA, FITC-labeled DYRKtide peptide, ATP 20 μM, read-out: Inhibitory activity DYRK 3 (IC50 class)
# [6] = MSA, FITC-labeled DYRKtide peptide, ATP 100 μM, read-out: Inhibitory activity DYRK 1A (IC50 class)
# [7] = read-out: Inhibitory activity DYRK 2
# [8] = read-out: Inhibitory activity DYRK 3
# [9] = read-out: Inhibitory activity DYRK 1A
Structure (SMILES),"IC50 [1, 4] [µM]","IC50 [2, 5] [µM]","IC50 [3, 6] [µM]","IC50 [1, 7] [µM]","IC50 [2, 8] [µM]","IC50 [3, 9] [µM]"
"O=C1N[C@H]2CCN(C3COC3)C[C@H]2N1c1nc2c3c(ccc2s1)OCC3 (racemic) [Example 71, rac-(3aR,7aS)-3-(7,8-dihydrofuro[3,2-e][1,3]benzothiazol-2-yl)-5-(oxetan-3-yl)octahydro-2H-imidazo[4,5-c]pyridin-2-one]",≥ 1,≥ 1,–,–,–,–
"O=C1N[C@H]2CCN(C3CCC3)C[C@H]2N1c1nc2c3c(ccc2s1)OCC3 (racemic) [Example 72, rac-(3aR,7aS)-5-cyclobutyl-3-(7,8-dihydrofuro[3,2-e][1,3]benzothiazol-2-yl)octahydro-2H-imidazo[4,5-c]pyridin-2-one]",≥ 1,≥ 1,0.01 to 0.1,–,–,–
"O=C1N[C@H]2CCCN(C3COC3)C[C@H]2N1c1nc2c3c(ccc2s1)OCC3 (racemic) [Example 73, rac-(3aR,8aS)-3-(7,8-dihydrofuro[3,2-e][1,3]benzothiazol-2-yl)-5-(oxetan-3-yl)octahydroimidazo[4,5-c]azepin-2(1H)-one]",0.1 to 1,≥ 1,< 0.01,–,–,–
"CN1CC[C@@H]2NC(=O)N(c3nc4c5c(ccc4s3)OCCO5)[C@@H]2C1 (racemic) [Example 76, rac-(3aR,7aS)-3-(7,8-dihydro[1,4]dioxino[2,3-e][1,3]benzothiazol-2-yl)-5-methyloctahydro-2H-imidazo[4,5-c]pyridin-2-one]",≥ 1,≥ 1,0.01 to 0.1,–,–,–
"CN1CC[C@@H]2[C@H](C1)NC(=O)N2c1nc2c3c(ccc2s1)OCCO3 (racemic) [Example 77, rac-(3aR,7aS)-1-(7,8-dihydro[1,4]dioxino[2,3-e][1,3]benzothiazol-2-yl)-5-methyloctahydro-2H-imidazo[4,5-c]pyridin-2-one]",≥ 1,0.1 to 1,0.01 to 0.1,–,–,–
"CN1CC[C@@H]2[C@H](C1)NC(=O)N2c1nc2c3c(ccc2s1)OCO3 (racemic) [Example 78, rac-(3aR,7aS)-1-(2H-[1,3]dioxolo[4,5-e][1,3]benzothiazol-7-yl)-5-methyloctahydro-2H-imidazo[4,5-c]pyridin-2-one]",≥ 1,0.1 to 1,0.01 to 0.1,–,–,–
"CN1CC[C@@H]2NC(=O)N(c3nc4c5c(ccc4s3)OCO5)[C@@H]2C1 (racemic) [Example 79, rac-(3aR,7aS)-3-(2H-[1,3]dioxolo[4,5-e][1,3]benzothiazol-7-yl)-5-methyloctahydro-2H-imidazo[4,5-c]pyridin-2-one]",≥ 1,≥ 1,0.01 to 0.1,–,–,–
"O=C1N[C@H]2CCN(C3COC3)C[C@H]2N1c1nc2c3c(ccc2s1)OCCO3 (racemic) [Example 80, rac-(3aR,7aS)-3-(7,8-dihydro[1,4]dioxino[2,3-e][1,3]benzothiazol-2-yl)-5-(oxetan-3-yl)octahydro-2H-imidazo[4,5-c]pyridin-2-one]",≥ 1,≥ 1,0.01 to 0.1,–,–,–
"O=C1N[C@H]2CCN(C3COC3)C[C@H]2N1c1nc2c3c(ccc2s1)OCO3 (racemic) [Example 81, rac-(3aR,7aS)-3-(2H-[1,3]dioxolo[4,5-e][1,3]benzothiazol-7-yl)-5-(oxetan-3-yl)octahydro-2H-imidazo[4,5-c]pyridin-2-one]",≥ 1,≥ 1,0.01 to 0.1,–,–,–
"CN1CCC[C@@H]2NC(=O)N(c3nc4c5c(ccc4s3)OCO5)[C@@H]2C1 (racemic) [Example 85, rac-(3aR,8aS)-3-(2H-[1,3]dioxolo[4,5-e][1,3]benzothiazol-7-yl)-5-methyloctahydroimidazo[4,5-c]azepin-2(1H)-one]",≥ 1,≥ 1,0.01 to 0.1,–,–,–
"O=C1N[C@H]2CCCN(C3COC3)C[C@H]2N1c1nc2c3c(ccc2s1)OCO3 (racemic) [Example 86, rac-(3aR,8aS)-3-(2H-[1,3]dioxolo[4,5-e][1,3]benzothiazol-7-yl)-5-(oxetan-3-yl)octahydroimidazo[4,5-c]azepin-2(1H)-one]",≥ 1,≥ 1,0.01 to 0.1,–,–,–
"O=C1N[C@H]2CCN(C3CC3)C[C@H]2N1c1nc2c3c(ccc2s1)OCC3 (racemic) [Example 98, rac-(3aR,7aS)-5-cyclopropyl-3-(7,8-dihydrofuro[3,2-e][1,3]benzothiazol-2-yl)octahydro-2H-imidazo[4,5-c]pyridin-2-one]",–,–,–,≥ 1,≥ 1,< 0.01
"C#CCN1CC[C@@H]2NC(=O)N(c3nc4c5c(ccc4s3)OCC5)[C@@H]2C1 (racemic) [Example 99, rac-(3aR,7aS)-3-(7,8-dihydrofuro[3,2-e][1,3]benzothiazol-2-yl)-5-(2-propyn-1-yl)octahydro-2H-imidazo[4,5-c]pyridin-2-one]",–,–,–,0.1 to 1,0.1 to 1,< 0.01
"C#CCN1CC[C@H]2NC(=O)N(c3nc4c5c(ccc4s3)OCC5)[C@H]2C1 (single isomer, unassigned) [Example 113]",–,–,–,≥ 1,–,0.1 to 1
"O=C1N[C@H]2CCN(C3COC3)C[C@@H]2N1c1nc2c3c(ccc2s1)OCC3 [Example 19, (3aS,7aS)-3-(7,8-dihydrofuro[3,2-e][1,3]benzothiazol-2-yl)-5-(oxetan-3-yl)octahydro-2H-imidazo[4,5-c]pyridin-2-one]",0.1 to 1,0.1 to 1,–,–,–,–
"O=C1N[C@H]2COCC[C@H]2N1c1nc2c3c(ccc2s1)OCCO3 [Example 37, (3aR,7aR)-1-(7,8-dihydro[1,4]dioxino[2,3-e][1,3]benzothiazol-2-yl)hexahydropyrano[3,4-d]imidazol-2(3H)-one]",0.1 to 1,0.1 to 1,–,–,–,–
O=C1N[C@H]2CNCC[C@H]2N1c1nc2c3c(ccc2s1)OCO3 [Example 52],0.1 to 1,0.1 to 1,–,–,–,–
CN1CC[C@@H]2NC(=O)N(c3nc4c5c(ccc4s3)OCC5)[C@@H]2C12CC2 [Example 69],≥ 1,≥ 1,–,–,–,–
CN1CC[C@H]2NC(=O)N(c3nc4c5c(ccc4s3)OCC5)[C@@H]2C12CC2 [Example 70],≥ 1,0.1 to 1,–,–,–,–
